Experiments:
[1] = Zeta potential by electrophoretic light scattering; type: physicochemical; conditions: water solution, 25 °C; GCR-2 in the presence of two-fold excess MG; concentration not given
Protocol: Formation of aggregates with increasing GCR-1 concentration was confirmed by the DLS method. In aqueous 1 mM GCR-1 solutions the formation of small particles with hydrodynamic diameter of 2.9 nm was observed (Figure 4a). This size is much more similar to that of a single molecule that to that of an aggregate. However, the bimodal distribution with peaks at 120 nm and 504 nm occurs for solution with 50 mM GCR-1. This could be attributed to the formation different stacked structures by head-to-head or head-to-tail interaction between GCR-1 molecules. […] Zeta-potential of GCR-1 aggregates obtained by electrophoretic light scattering in solution was −56.8 mV that correspond to sufficiently stable systems. Negative value was caused by dissociation of sulfonate groups of GCR-1 lower rim in aqueous medium. To confirm the morphology and dimension of the GCR-1 aggregates, TEM image was recorded (Figure 5a), where it was shown that GCR-1 molecules were assembled into non-well-defined large nanoparticles. The probable reason for such high polydispersity is multiple supramolecular interactions, such as Coulombic interactions between oppositely charged rims through head-to-tail self-assembly, hydrogen bonding between hydroxyl groups by head-to-head joining and π-π stacking between aromatic units of neighboring macrocycles (Figure 6a). […]

[2] = system: Chang liver cell line; experiment: Cell viability evaluation (Cytell Cell Imaging); type: cell-based; conditions: 50% inhibition of cell growth, human hepatocytes, read-out: IC50 on Chang Liver Cells Line
Protocol: Cell viability of human hepatocytes cells (Chang liver cell line from the N. F. Gamaleya Research Center of Epidemiology and Microbiology) toward macrocycles was determined by means of multifunctional system Cytell Cell Imaging (GE Healthcare, Issaquah, WA, USA) using application Cell Viability BioApp and Automated Imaging BioApp. The cells were dispersed on a 96-well plate at a concentration of 200,000 cells/mL and cultivated in CO2-incubator at 37 °C. Next, the culture medium was sampled in 24 h, and 150 μL of the studied dispersions was added to each well. The experiments were repeated three times. Intact cells cultivated simultaneously with the studied ones served as a reference. The fraction of the grown-up cells was expressed in % vs. reference cells. Degree of cell growth inhibition under the influence of testing agent was calculated by equation:N (%) = (1 − Exp/Control) × 100(1) where Exp is the quantity of uninhibited cells in sample studied, Control is the quantity of uninhibited cells in control sample. Then the IC50 (concentration which caused 50% cell growth inhibition) was determined from curve of cell cultural growth versus macrocycle concentration. The experiments were repeated three times and results are presented as the mean ± standard deviation.

- Zeta-potential of aggregates [1]: −17.4 mV
- melting point: > 350 °C
Compound: CC1c2cc(c(O)c(CN(C)C[C@@H](O)[C@H](O)[C@@H](O)[C@@H](O)CO)c2O)C(C)c2cc(c(O)c(CN(C)C[C@@H](O)[C@H](O)[C@@H](O)[C@@H](O)CO)c2O)C(C)c2cc(c(O)c(CN(C)C[C@@H](O)[C@H](O)[C@@H](O)[C@@H](O)CO)c2O)C(C)c2cc1c(O)c(CN(C)C[C@@H](O)[C@H](O)[C@@H](O)[C@@H](O)CO)c2O (stereo partly drawn) [GCR-2, N-methyl-D-glucaminemethyl methylcalix[4]resorcinarene]
- IC50 [2]: > 100 µM

— paper PMC6572135, “N-Methyl-D-glucamine–Calix[4]resorcinarene Conjugates: Self-Assembly and Biological Properties” (Molecules, 2019)
